Calls of active or inactive are those of the source.
Assays:
[1] = system: HeLa; test: ATP-based viability loss in HeLa cells – cell-based, CellTiter-Glo luminescence, cherry-pick samples, cytotoxicity control for MITF activator project, dose response (AID 540259); format: functional; conditions: Homo sapiens
[2] = Luminescence Cell-Based Dose Retest to Confirm Inhibitors of Cancer Stem Cells. [Related pubchem assays (depositor defined):AID2717, AID2721]; format: functional; conditions: Homo sapiens
[3] = system: Escherichia coli; test: microbe, parasite or virus in culture
[4] = target: Beta-galactosidase (Escherichia coli, UniProt Q8VNN2); test: PubChem AID 485352; format: functional
Beta-galactosidase, sequence (Q8VNN2 whole entry): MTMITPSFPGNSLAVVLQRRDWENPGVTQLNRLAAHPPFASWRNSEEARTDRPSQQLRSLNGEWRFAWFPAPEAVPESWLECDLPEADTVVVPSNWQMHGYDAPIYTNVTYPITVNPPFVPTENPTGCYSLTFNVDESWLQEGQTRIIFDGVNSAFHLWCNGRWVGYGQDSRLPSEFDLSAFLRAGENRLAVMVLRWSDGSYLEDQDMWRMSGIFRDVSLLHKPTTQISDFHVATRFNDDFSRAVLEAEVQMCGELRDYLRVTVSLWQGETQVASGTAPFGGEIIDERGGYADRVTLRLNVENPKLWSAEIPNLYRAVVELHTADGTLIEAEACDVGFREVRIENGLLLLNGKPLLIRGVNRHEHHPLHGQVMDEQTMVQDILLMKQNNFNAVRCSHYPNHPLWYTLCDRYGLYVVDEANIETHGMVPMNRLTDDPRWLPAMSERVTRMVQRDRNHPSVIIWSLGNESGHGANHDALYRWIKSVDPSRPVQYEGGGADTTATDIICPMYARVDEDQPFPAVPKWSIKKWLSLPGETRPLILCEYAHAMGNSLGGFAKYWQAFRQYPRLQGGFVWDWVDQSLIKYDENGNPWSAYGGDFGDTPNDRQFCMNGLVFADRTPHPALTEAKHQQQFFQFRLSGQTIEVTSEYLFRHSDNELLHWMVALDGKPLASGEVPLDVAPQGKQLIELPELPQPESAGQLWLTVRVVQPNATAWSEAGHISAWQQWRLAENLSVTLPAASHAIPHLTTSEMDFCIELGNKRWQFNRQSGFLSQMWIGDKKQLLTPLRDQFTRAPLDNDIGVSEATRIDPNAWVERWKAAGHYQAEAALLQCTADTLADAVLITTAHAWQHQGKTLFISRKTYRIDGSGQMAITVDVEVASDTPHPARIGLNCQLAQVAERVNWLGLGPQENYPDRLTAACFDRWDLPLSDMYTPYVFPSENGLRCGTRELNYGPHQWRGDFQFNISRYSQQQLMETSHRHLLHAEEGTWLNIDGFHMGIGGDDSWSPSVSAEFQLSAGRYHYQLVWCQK

[5] = target: T1, Type-1 angiotensin II receptor (Homo sapiens, UniProt P30556); test: antagonism of angiotensin II type 1 receptor – cell-based, uHTS hits, selectivity assay for APJ receptor antagonist project, dose response (AID 463214); format: functional;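 also: antagonist potency against angiotensin II stimulated AT1 response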
T1 sequence (P30556 whole entry): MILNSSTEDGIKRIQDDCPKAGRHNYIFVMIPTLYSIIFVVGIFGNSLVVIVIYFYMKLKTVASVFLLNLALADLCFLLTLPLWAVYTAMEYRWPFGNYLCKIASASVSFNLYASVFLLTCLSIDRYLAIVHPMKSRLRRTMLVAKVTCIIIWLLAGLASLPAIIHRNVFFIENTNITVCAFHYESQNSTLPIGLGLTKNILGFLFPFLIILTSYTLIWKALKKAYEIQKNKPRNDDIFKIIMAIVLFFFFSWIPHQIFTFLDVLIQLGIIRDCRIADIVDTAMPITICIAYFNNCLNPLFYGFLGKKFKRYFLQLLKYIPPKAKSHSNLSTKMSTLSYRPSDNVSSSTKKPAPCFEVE

[6] = target: Protein Rev (Human immunodeficiency virus type 1 group M subtype B (isolate WMJ22)(HIV-1), UniProt P05866); test: inhibitors of Rev protein–RRE RNA complex – biochemical, protein-RNA interaction, dose response (AID 842); set-up: species or system Human immunodeficiency virus 1
Protein Rev, sequence (P05866 whole entry, the tested form may be a part): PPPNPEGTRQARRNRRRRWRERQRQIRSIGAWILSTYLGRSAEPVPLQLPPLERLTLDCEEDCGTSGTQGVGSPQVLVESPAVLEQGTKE

[7] = blockers of HIV-1 ZM109 envelope-driven cell-cell fusion – HeLa effector, CEM target cells, luciferase, cherry-pick, dose response (AID 652058); format: functional, cell-based;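 also: luciferase signal from HIV-1 Env mediated cell-cell fusion of effector and target cells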
[8] = system: BJ; test: BJ-TERT fibroblast viability loss – cell-based, RAS-independent, luminescence, dose response (AID 1933); format: functional; conditions: Homo sapiens
[9] = target: Nucleotide-binding oligomerization domain-containing protein 2 (Homo sapiens, UniProt Q9HC29); test: inhibition of NOD2-driven NF-kB reporter – cell-based, luminescence, uHTS, HEK293 (AID 1566); format: functional
Nucleotide-binding oligomerization domain-containing protein 2, sequence (Q9HC29 whole entry, the tested form may be a part): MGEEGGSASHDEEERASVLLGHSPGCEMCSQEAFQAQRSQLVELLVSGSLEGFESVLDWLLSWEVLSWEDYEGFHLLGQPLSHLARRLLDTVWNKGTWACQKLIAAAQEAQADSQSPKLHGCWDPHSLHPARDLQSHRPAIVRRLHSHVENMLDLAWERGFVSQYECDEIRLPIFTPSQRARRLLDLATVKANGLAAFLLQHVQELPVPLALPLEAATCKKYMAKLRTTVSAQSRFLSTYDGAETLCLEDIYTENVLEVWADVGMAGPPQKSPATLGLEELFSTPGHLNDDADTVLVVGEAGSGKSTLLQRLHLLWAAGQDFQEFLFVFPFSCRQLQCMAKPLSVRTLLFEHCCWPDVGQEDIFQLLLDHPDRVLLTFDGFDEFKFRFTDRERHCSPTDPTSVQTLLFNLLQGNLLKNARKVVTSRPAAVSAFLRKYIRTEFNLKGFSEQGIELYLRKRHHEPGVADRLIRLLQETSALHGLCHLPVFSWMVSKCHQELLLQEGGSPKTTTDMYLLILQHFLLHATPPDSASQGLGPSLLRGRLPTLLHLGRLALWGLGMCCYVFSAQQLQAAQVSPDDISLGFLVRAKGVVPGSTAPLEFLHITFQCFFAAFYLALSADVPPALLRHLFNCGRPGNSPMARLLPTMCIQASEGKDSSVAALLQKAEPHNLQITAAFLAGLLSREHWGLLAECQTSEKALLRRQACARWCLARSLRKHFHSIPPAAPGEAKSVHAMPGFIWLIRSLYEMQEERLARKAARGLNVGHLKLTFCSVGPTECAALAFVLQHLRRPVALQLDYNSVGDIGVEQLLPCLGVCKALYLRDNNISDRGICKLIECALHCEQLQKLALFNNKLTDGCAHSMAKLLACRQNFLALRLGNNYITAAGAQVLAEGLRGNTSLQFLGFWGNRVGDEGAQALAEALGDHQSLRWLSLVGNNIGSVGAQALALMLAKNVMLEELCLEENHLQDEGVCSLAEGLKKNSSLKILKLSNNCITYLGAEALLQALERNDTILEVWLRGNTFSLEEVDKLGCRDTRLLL

[10] = system: HEK293; test: cells; format: functional, cell-based; conditions: Homo sapiens
[11] = DRD fibroblast viability loss – cell-based, non-viral oncogenic, luminescence, dose response (AID 1934); format: functional; conditions: Homo sapiens
[12] = system: BJ; test: cells; format: functional, cell-based; conditions: Homo sapiens
[13] = system: HEK293; test: cells; format: functional, cell-based; conditions: Homo sapiens; remark: listed apart in the source
[14] = target: T2, Serine/threonine-protein phosphatase (Candida dubliniensis (strain CD36 / CBS 7987 / NCPF 3949 / NRRLY-17841) (Yeast), UniProt B9W6M3); test: blockers of CaCl2-induced CDRE-lacZ signaling – S. cerevisiae, luminescence, secondary, dose response (AID 2388); format: functional, cell-based;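 also: yeast reporter cells carrying a calcineurin-responsive lacZ construct stimulated with calcium chloride; luminescent beta-galactosidase reporter signal in whole cells rather than isolated phosphatase activity; potency for inhibition where a drop in reporter signal means calcineurin blockade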
T2 sequence (B9W6M3 whole entry): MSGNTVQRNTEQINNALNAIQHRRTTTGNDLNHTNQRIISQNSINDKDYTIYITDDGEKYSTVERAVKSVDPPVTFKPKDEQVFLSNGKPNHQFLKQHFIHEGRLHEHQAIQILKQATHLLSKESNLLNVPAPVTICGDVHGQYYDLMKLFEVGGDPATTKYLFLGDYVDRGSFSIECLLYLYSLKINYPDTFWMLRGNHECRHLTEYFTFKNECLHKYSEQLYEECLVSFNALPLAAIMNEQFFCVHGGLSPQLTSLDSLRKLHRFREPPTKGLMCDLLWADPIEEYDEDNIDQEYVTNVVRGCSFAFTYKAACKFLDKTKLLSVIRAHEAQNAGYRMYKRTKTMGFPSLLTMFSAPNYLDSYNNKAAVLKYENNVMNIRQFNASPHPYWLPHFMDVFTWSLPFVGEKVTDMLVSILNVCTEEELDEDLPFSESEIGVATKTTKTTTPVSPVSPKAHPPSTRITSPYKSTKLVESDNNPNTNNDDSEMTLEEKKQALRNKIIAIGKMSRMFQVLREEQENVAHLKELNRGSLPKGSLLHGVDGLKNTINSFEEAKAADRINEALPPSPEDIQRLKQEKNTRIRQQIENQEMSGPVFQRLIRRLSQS

[15] = fluconazole-exposed Candida albicans growth modulators – fluorescence, retest, confirmation (AID 2467); format: functional, cell-based
[16] = cells; format: functional
[17] = system: INS1; test: INS-1E survival protection against cytokine death – cell-based, luminescence, retest, dose response (AID 449756); format: functional; conditions: Rattus norvegicus;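 also: cell death triggered by IL-1 beta plus TNF-alpha plus IFN-gamma mixture; protective hits raise ATP signal compared with cytokine alone wells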
[18] = viability loss in CEM21 cells – cell-based, CellTiter-Glo luminescence, cherry-picked, cytotoxicity control for viral fusion inhibitor project, dose response (AID 652042); format: functional;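 also: potency for signal decrease meaning cytotoxicity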
[19] = system: HEK293; test: NOD2 signaling inhibitors in MDP-stimulated cells, cell-based, uHTS, luminescence (AID 2001); format: functional; conditions: Homo sapiens
[20] = HepG2 cell cytotoxicity, dose response, cytotoxicity control for non-replicating M. tuberculosis project (AID 489018); format: functional; conditions: Mycobacterium tuberculosis
[21] = system: BJ; test: growth inhibition of engineered Ras-driven BJ cells – cell-based, alamar blue fluorescence, cherrypicked samples, dose response (AID 2631); format: functional; conditions: Homo sapiens;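 also: confirmatory dose-response assay in RAS-dependent BJ fibroblasts engineered with TERT, LT and ST, with cytotoxicity read by fluorescence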
[22] = system: HEK293; test: cells; format: functional, cell-based; conditions: Homo sapiens; remark: listed apart in the source
[23] = blockers of HIV-1 envelope-mediated cell-cell fusion – cherry-pick, dose response (AID 652057); format: functional, cell-based
[24] = Luminescence Cell-Based Dose Response HTS to Identify Inhibitors of 5'UTR Stem-Loop Driven Prion Protein mRNA Translation in H4 Neuroglioblastoma Cells. [Related pubchem assays: 1827 (Project Summary), 1813 (Primary HTS)]; format: functional
[25] = target: ATP-dependent molecular chaperone HSP82 (Candida albicans (strain WO-1) (Yeast), UniProt C4YTQ8); test: steroid-induced GRE reporter decrease in yeast – S. cerevisiae, luminescence, Hsp90 inhibitor project, dose response (AID 2400); format: functional, cell-based;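 also: beta-galactosidase luminescence from glucocorticoid response element reporter as proxy for Hsp90 function; inhibitor potency where signal loss means Hsp90 inhibition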
ATP-dependent molecular chaperone HSP82, sequence (C4YTQ8 whole entry): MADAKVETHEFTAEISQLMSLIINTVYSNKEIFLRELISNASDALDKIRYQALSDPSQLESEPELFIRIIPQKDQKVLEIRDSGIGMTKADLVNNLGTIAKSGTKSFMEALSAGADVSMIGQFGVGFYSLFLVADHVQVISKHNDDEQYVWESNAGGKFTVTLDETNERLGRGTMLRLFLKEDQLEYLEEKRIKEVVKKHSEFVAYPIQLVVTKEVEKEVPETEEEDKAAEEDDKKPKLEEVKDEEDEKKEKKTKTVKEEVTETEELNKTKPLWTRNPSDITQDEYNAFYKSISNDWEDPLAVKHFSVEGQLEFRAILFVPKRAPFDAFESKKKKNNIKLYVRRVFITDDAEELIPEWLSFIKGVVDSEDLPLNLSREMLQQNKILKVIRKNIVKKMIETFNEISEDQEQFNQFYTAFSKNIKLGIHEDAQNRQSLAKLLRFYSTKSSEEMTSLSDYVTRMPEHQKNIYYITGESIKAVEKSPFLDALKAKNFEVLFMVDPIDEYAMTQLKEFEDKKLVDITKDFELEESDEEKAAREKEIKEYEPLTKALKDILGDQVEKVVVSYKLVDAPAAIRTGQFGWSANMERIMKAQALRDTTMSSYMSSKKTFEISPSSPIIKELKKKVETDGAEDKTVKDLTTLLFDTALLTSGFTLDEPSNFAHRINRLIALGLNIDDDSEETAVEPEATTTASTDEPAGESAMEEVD

[26] = viability of HCT116 lacking mutant beta-catenin – cell-based, human colon tumor, dose response (AID 1045); format: functional;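 also: HCT116 colon tumor cells with beta catenin knocked out; cells exposed to compound for 60 hours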
[27] = HIV-1 AD8 envelope cell-cell fusion blockers – cherry-pick, dose response (AID 652062); format: functional, cell-based;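 also: luciferase signal from cell-cell fusion driven by HIV-1 clade B AD8 Env; potency is for inhibitors of fusion seen as a drop in luminescence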
[28] = Vero E6 cell cytotoxicity, dose response, cytotoxicity control for non-replicating M. tuberculosis project, secondary assay (AID 492998); format: functional, VeroE6; conditions: Vero C1008
[29] = luciferase reporter signal suppression in cells – H4 neuroglioma cells, luminescence, dose response (AID 1990); format: functional, cell-based
[30] = system: Jurkat; test: blockers of NF-kB activation in T cells – Jurkat, luciferase reporter, luminescence, B- and T-cell, dose response (AID 489004); format: functional, cell-based; conditions: Homo sapiens;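 also: NF-kB luciferase reporter Jurkat cells stimulated with PMA plus ionomycin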
[31] = system: HEK293; test: inhibition of NOD1-driven NF-kB reporter – cell-based, luminescence, uHTS, primary screen (AID 1578); format: functional; conditions: Homo sapiens
[32] = alpha-synuclein stem-loop luciferase translation blockers – H4 neuroglioma cells, luminescence, confirmation (AID 1988); format: functional, cell-based
[33] = viability of PTEN-deleted HCT116 cells – cell-based, HCT116 PTEN knockout, dose response (AID 1047); format: functional;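 also: HCT116 colon tumor cells with PTEN knocked out; cells exposed to compound for 60 hours before readout; potency for loss of cell viability measured by luminescence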
[34] = NIH-3T3 fibroblast cytotoxicity, dose response, cytotoxicity control, cell-based, fluorescence, Alamar Blue, secondary assay (AID 2327); format: functional;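 also: NIH-3T3 mouse fibroblasts cultured with fluconazole at 8 µg/mL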
[35] = THP-1 cell cytotoxicity, dose response, cytotoxicity control for non-replicating M. tuberculosis project (AID 489025); format: functional
[36] = HEK-293T viability loss, compound-treated – cell-based, uHTS hits, cytotoxicity control for B/T-cell NF-kB inhibitor project, dose response (AID 489019); format: functional;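 also: IC50 reflects cytotoxicity as loss of cell viability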
[37] = system: BJ; test: BJ-TERT-LT-ST fibroblast viability loss – cell-based, RAS-independent, luminescence, dose response (AID 1935); format: functional; conditions: Homo sapiens;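 also: BJ fibroblasts immortalized with TERT plus LT and ST oncogenes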
[38] = target: T3, Microphthalmia-associated transcription factor (Homo sapiens, UniProt O75030); test: reducers of TRPM1 reporter luminescence, concentration series – cell-based, SK-MEL-5, cherry-picked, set 3, MITF inhibitor project, dose response (AID 493073); format: functional;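 also: SK-MEL-5 melanoma cells with luciferase driven by the MITF target TRPM1 promoter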
T3 sequence (O75030 whole entry): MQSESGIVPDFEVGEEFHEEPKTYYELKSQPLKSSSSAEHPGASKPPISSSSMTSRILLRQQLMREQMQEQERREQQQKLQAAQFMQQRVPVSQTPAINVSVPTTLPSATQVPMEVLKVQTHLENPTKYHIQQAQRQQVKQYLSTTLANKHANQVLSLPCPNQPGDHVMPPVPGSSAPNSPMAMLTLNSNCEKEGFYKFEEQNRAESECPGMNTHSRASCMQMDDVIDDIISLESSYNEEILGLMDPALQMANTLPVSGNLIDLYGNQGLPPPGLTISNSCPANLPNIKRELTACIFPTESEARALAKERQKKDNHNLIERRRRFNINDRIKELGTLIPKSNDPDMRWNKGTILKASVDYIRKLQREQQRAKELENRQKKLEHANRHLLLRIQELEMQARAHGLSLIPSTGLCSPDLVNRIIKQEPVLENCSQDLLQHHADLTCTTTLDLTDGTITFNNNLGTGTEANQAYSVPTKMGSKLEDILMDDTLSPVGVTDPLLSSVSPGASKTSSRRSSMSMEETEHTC

[39] = system: A-375; test: MITF: Counter assay: A375 proliferation Measured in Cell-Based System Using Plate Reader - 2084-03_Inhibitor_Dose_DryPowder_Activity. [Related pubchem assays (depositor defined):AID488944]; format: functional; conditions: Homo sapiens
[40] = target: Beta-2 adrenergic receptor (Homo sapiens, UniProt P07550); test: ADRB2 activation measured by internalization – cell-based, FAP fluorogen, flow cytometry, cherry pick 1, dose response (AID 588763); format: functional
Beta-2 adrenergic receptor, sequence (P07550 whole entry): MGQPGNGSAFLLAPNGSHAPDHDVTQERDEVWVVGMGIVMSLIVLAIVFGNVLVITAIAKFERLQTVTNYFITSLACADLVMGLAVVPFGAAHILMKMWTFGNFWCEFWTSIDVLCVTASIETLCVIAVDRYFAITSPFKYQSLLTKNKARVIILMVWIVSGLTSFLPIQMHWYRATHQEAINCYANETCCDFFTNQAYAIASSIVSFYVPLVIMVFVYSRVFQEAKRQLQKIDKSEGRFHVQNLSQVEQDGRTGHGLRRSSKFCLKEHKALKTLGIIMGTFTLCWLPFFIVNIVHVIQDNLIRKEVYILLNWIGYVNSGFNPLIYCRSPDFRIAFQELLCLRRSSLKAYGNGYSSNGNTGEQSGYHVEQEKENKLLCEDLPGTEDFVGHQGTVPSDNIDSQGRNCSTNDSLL

Brc1csc(/C=N/Nc2nc3ccccc3s2)c1
AC50 [1]: 46 µM (active)

CC(C)c1ccc(NC(=O)c2snc3ccc(Cl)cc23)cc1
AC50 [2]: 3.02 µM (active) | AC50 [3]: 23.1 µM (active) | AC50 [1]: 52.8 µM (active)

CCC[N+](CC#Cc1ccccc1)(CCC)CC(=O)c1ccc(Cl)cc1
EC50 [4]: > 40 µM (inactive) | IC50 [5]: > 40 µM (not active)

COc1ccc(/C=C/c2cc(-c3ccc(C)cc3)o[n+]2C)cc1
IC50 [6]: > 79.4 µM (not active) | AC50 [7]: 3.33 µM (active) | EC50 [8]: 0.601 µM (inconclusive) | EC50 [9]: 8.29 µM (active) | IC50 [10]: 5.25 µM (active) | EC50 [11]: 5.02 µM (active) | EC50 [12]: 1.87 µM (inconclusive) | IC50 [13]: > 20 µM (inactive) | EC50 [14]: > 180 µM (inactive) | EC50 [15]: 0.576 µM (active) | IC50 [16]: 5.99 µM (active) | AC50 [17]: 0.76 µM (active) | AC50 [18]: 4.21 µM (active) | IC50 [19]: 8.34 µM (active) | CC50 [20]: 9.8 µM (active) | EC50 [21]: 3.43 µM (active) | IC50 [22]: 13.2 µM (active) | AC50 [23]: 6.83 µM (active) | EC50 [24]: 12.2 µM (active) | EC50 [25]: > 160 µM (inactive) | EC50 [26]: 0.733 µM (active) | AC50 [27]: 7.88 µM (active) | CC50 [28]: > 20 µM (active) | EC50 [29]: 0.894 µM (active) | IC50 [30]: 3.13 µM (active) | EC50 [31]: 9.15 µM (active) | EC50 [32]: 2.27 µM (active) | EC50 [33]: 0.778 µM (active) | EC50 [34]: > 160 µM (inactive) | CC50 [35]: 2.38 µM (active) | IC50 [36]: > 80 µM (inactive) | EC50 [37]: 4.41 µM (inconclusive)

O=C1N=C(NS(=O)(=O)Cc2ccccc2)S/C1=C/c1cc([N+](=O)[O-])ccc1O
EC50 [4]: > 40 µM (inactive) | IC50 [5]: 39.9 µM (not active)

COc1ccccc1CNCC(O)Cn1c2ccccc2c2ccccc21 (stereo unspecified)
AC50 [17]: 11.2 µM (active) | AC50 [38]: 18.7 µM (active) | AC50 [39]: 19.2 µM (active) | EC50 [26]: 8.31 µM (active) | EC50 [33]: 8.09 µM (active) | EC50 [40]: 12.2 µM (inactive)

— ChEMBL document CHEMBL1201862, “PubChem BioAssay data set” (2004)
